Results from publication PMC3807247 (Journal of the American Chemical Society, 2009).
Like-named read-outs stand apart in the source and are kept apart here.

How the values were obtained:
[1] = biological target: full length Udorn AM2 protein (Influenza A virus, UniProt P0DOF5); assay: Two-electrode voltage clamp; type: cell-based, influenza virus A/Udorn/72; settings: for AM2 remaing Activity after 100uM inhibition: Table 1, 100 uM inhibitor, pH 5.5, -20 mV; for inhibitory activity against AM2 (in words): tested at 100 μM
[2] = tested on: AM2 channel expressed in Xenopus oocytes; settings: BL-1743, TEV; cited from earlier work
[3] = read-out: Activity remaining activity after 100uM inhibition

full length Udorn AM2 protein, sequence (P0DOF5 whole entry, looked up): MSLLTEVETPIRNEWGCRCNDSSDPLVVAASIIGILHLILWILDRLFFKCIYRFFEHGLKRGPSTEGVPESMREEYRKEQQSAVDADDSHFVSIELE

C1CCC2(CC1)CCN(CC1CC1)CC2 [Compound 1, 3-(Cyclopropylmethyl)-3-azaspiro[5,5]undecane]
AM2 remaing Activity after 100uM inhibition ([1]; TEV, Xenopus oocytes): 100%

c1ccc(CN2CCC3(CCCCC3)CC2)nc1 [Compound 6, 3-(Pyridin-2-ylmethyl)-3-azaspiro[5,5]undecane]
AM2 remaing Activity after 100uM inhibition ([1]; TEV, Xenopus oocytes): 100%

c1cc(CN2CCC3(CCCCC3)CC2)cs1 [Compound 3, 3-(Thiophen-3-ylmethyl)-3-azaspiro[5,5]undecane]
AM2 remaing Activity after 100uM inhibition ([1]; TEV, Xenopus oocytes): 90%

C1CCC2(CC1)CCN(C1=NCCN1)CC2.I [BL-1743, 3-(4,5-Dihydro-1H-imidazol-2-yl)-3-azaspiro[5,5]undecane Hydroiodide, reference compound]
Hill coefficient for inhibition [2]: 1.0
AM2 remaing Activity after 100uM inhibition ([1]; TEV, Xenopus oocytes): 25%

C1COC2(CCNCC2)OC1 [Compound 17, 1,5-Dioxa-9-azaspiro[5,5]undecane]
IC50 [1]: > 100 µM
remaining activity at 100 µM [1, 3]: 100%

C1CCC2(CC1)CCN(CC1CCCC1)CC2 [Compound 2, 3-(Cyclopentylmethyl)-3-azaspiro[5,5]undecane]
AM2 remaing Activity after 100uM inhibition ([1]; TEV, Xenopus oocytes): 100%

C1CCC2(CC1)CCNC2 [Compound 16, 2-Azoniaspiro[4,5]decane Chloride]
IC50 [1]: 12 ± 1.6 µM

c1nc(CN2CCC3(CCCCC3)CC2)c[nH]1 [Compound 7, 3-((1H-Imidazol-4-yl)methyl)-3-azaspiro[5.5]undecane]
AM2 remaing Activity after 100uM inhibition ([1]; TEV, Xenopus oocytes): 70%
inhibitory activity against AM2 (in words) [1]: moderate inhibition

NC(=S)N1CCC2(CCCCC2)CC1 [Compound 13, 3-Azaspiro[5,5]undecane-3-carbothioamide]
inhibitory activity against AM2 (in words) [1]: not active

Cn1cc(CN2CCC3(CCCCC3)CC2)cn1 [Compound 4, 3-((1-Methyl-1H-pyrazol-4-yl)methyl)-3-azaspiro[5,5]undecane]
AM2 remaing Activity after 100uM inhibition ([1]; TEV, Xenopus oocytes): 100%

CCC1(C)CCNCC1 [Compound 20, 4-Ethyl-4-methylpiperidinium Chloride]
remaining activity at 100 µM ([1]; read-out: AM2 remaining Activity after 100uM inhibition): 22%

CN1CCC2(CCCCC2)CC1.Cl [Compound 10, 3-Methyl-3-azoniaspiro[5,5]undecane Chloride]
decrease in activity relative to spiro-piperidine 9 ([1]; ratio of IC50 values): approximately 20 fold

Cc1cc(CN2CCC3(CCCCC3)CC2)no1 [Compound 5, 3-(3-Azaspiro[5,5]undecan-3-ylmethyl)-5-methylisoxazole]
AM2 remaing Activity after 100uM inhibition ([1]; TEV, Xenopus oocytes): 100%

c1c[nH]c(CN2CCC3(CCCCC3)CC2)n1 [Compound 8, 3-((1H-Imidazol-2-yl)methyl)-3-azaspiro[5.5]undecane]
AM2 remaing Activity after 100uM inhibition ([1]; TEV, Xenopus oocytes): 49%
inhibitory activity against AM2 (in words) [1]: moderate inhibition

C1CSC2(CCNCC2)SC1 [Compound 18, 1,5-Dithia-9-azaspiro[5,5]undecane]
IC50 [1]: 37.6 ± 2.67 µM
remaining activity at 100 µM [1, 3]: 12%

NC(=O)N1CCC2(CCCCC2)CC1 [Compound 12, 3-Azaspiro[5,5]undecane-3-carboxamide]
inhibitory activity against AM2 (in words) [1]: not active

C1CCC2(CC1)CCNCC2.Cl [Compound 9, 3-Azaspiro[5,5]undecane Chloride]
IC50 ([1]; Table 2, TEV, Xenopus oocytes): 0.92 ± 0.11 µM
increase in potency relative to BL-1743 ([1]; ratio of IC50 values): more than 45 fold
